Assay results reported in patent US20140102978A1, “Composition and Method for Remediation of Contaminated Water” (JRW BIOREMEDIATION LLC, priority 2012, published 2014).

Test: Thiosulfate/Gluconate physical compatibility screening
Assay type: physicochemical
Conditions: heated to no more than 115° F, visual and olfactory
Description: The final solution was stored at room temperature for 15 days and then examined to determine relative storage stability.

ferrous gluconate
Observation (1 g ferrous gluconate (Mole % 4%) added to 25 g sodium thiosulfate): Mild odor, dissolved when warmed | Observation (2 g ferrous gluconate (Mole % 7%) added to 25 g sodium thiosulfate): Mild odor, dissolved when warmed | Observation (3 g ferrous gluconate (Mole % 11%) added to 25 g sodium thiosulfate): Mod odor, dissolved when warmed | Observation (4.5 g ferrous gluconate (Mole % 16%) added to 25 g sodium thiosulfate): Mod odor, dissolved when warmed | Observation (5 g ferrous gluconate (Mole % 19%) added to 25 g sodium thiosulfate): Mod odor, dissolved when warmed | Observation (6 g ferrous gluconate (Mole % 22%) added to 25 g sodium thiosulfate): Mod odor, dissolved when warmed | Observation (7 g ferrous gluconate (Mole % 26%) added to 25 g sodium thiosulfate): Mod odor, dissolved when warmed | Observation (8 g ferrous gluconate (Mole % 30%) added to 25 g sodium thiosulfate): Mod odor, dissolved when warmed | Observation (9 g ferrous gluconate (Mole % 33%) added to 25 g sodium thiosulfate): Mod odor, dissolved when warmed | Observation (10 g ferrous gluconate (Mole % 37%) added to 25 g sodium thiosulfate): Mod odor, dissolved when warmed | Observation (14 g ferrous gluconate (Mole % 52%) added to 25 g sodium thiosulfate): Mod odor, dissolved when warmed
